In PubChem BioAssay AID264 (DTP/NCI, 2004):
Values joined by “and” are separate entries in the source; they are usually repeats but may differ in a detail not shown here. Equal entries are not always repeated. Records with an inconclusive call do not appear. Bridge positions count the residues as written; N and C are the ends. Square brackets hold non-standard residues; d marks the D form. Peptide text beside a SMILES is read from it. I, II: the chains in the order shown. * marks the point of attachment. Quinoxaline2carbonyl = O=C(c1cnc2ccccc2n1)*; NMeV = CN[CH](C(=O)O)C(C)C; NMeC = CN[CH](CS)C(=O)O

Test system: nude mice, LX-1 lung xenograft intrarenal, tumor weight T/C
Experiment: NCI In Vivo Anticancer Drug Screen. Data for tumor model Human Lung LX-1 Xenograft (intrarenal inoculation) in NU/NU Swiss (nude) mice
Conditions: endpoint: mean tumor weight change, higher = larger tumour
Outline: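 Readout: T/C, i.e. treated-group tumor measurement over vehicle-control measurement. Mice bearing transplantable tumors were dosed with compound or vehicle.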

[1] = dose: 100.0 mg/kg/injection, schedule: Q01DX010 (sc), vehicle: saline
[2] = dose: 200.0 mg/kg/injection, schedule: Q01DX010 (sc), vehicle: saline
[3] = dose: 400.0 mg/kg/injection, schedule: Q01DX010 (sc), vehicle: saline
[4] = dose: 150.0 mg/kg/injection, schedule: Q04DX003 (sc), vehicle: Klucel (hydroxypropylcellulose) (HPC)
[5] = dose: 300.0 mg/kg/injection, schedule: Q04DX003 (sc), vehicle: Klucel (hydroxypropylcellulose) (HPC)
[6] = dose: 600.0 mg/kg/injection, schedule: Q04DX003 (sc), vehicle: Klucel (hydroxypropylcellulose) (HPC)

`CNC=O` was tested, and the T/C [1] was 35 % of control, the T/C [2] was 7 % of control and 15 % of control and 21 % of control and the T/C [3] was 1 % of control and 2 % of control and 24 % of control. The T/C (dose: 1600.0 mg/kg/injection, schedule: Q01DX010 (sc), vehicle: saline) was 1 % of control.
With `O=C(CC(=O)C(F)(F)F)c1csc2ccccc12` the T/C (dose: 75.0 mg/kg/injection, schedule: Q04DX003 (sc), vehicle: Klucel (hydroxypropylcellulose) (HPC)) was 81 % of control, the T/C [4] was 70 % of control and the T/C [5] was 93 % of control. The T/C [6] was 87 % of control.
For `O=c1oc2c(O)c(O)cc3c(=O)oc4c(O)c(O)cc1c4c23`, the T/C [4] was 215 % of control, the T/C [5] was 86 % of control and the T/C [6] was 88 % of control. For the same molecule, the T/C (dose: 1200.0 mg/kg/injection, schedule: Q04DX003 (sc), vehicle: Klucel (hydroxypropylcellulose) (HPC)) was 81 % of control.
`CC(C)[C@](O)(C(=O)OCC1=CCN2CC[C@@H](O)[C@@H]12)[C@H](C)O` was tested, and the T/C (dose: 150.0 mg/kg/injection, schedule: Q04DX003 (sc), vehicle: water) was 80 % of control, the T/C (dose: 300.0 mg/kg/injection, schedule: Q04DX003 (sc), vehicle: water) was 91 % of control and the T/C (dose: 600.0 mg/kg/injection, schedule: Q04DX003 (sc), vehicle: water) was 82 % of control. The T/C (dose: 1200.0 mg/kg/injection, schedule: Q04DX003 (sc), vehicle: water) was 70 % of control.
`CN=S(=O)(OCCCCCOS(=O)(=NC)c1ccccc1)c1ccccc1` (configuration not stated) was tested, and the T/C (dose: 200.0 mg/kg/injection, schedule: Q04DX003 (sc), vehicle: saline with Tween-80) was 36 % of control, the T/C (dose: 400.0 mg/kg/injection, schedule: Q04DX003 (sc), vehicle: saline with Tween-80) was 77 % of control and the T/C (dose: 800.0 mg/kg/injection, schedule: Q04DX003 (sc), vehicle: saline with Tween-80) was 57 % of control.
`C1=CCOCOC1` was tested, and the T/C (dose: 50.0 mg/kg/injection, schedule: Q01DX010 (sc), vehicle: saline with Tween-80) was 83 % of control, the T/C (dose: 100.0 mg/kg/injection, schedule: Q01DX010 (sc), vehicle: saline with Tween-80) was 105 % of control and the T/C (dose: 200.0 mg/kg/injection, schedule: Q01DX010 (sc), vehicle: saline with Tween-80) was 81 % of control. The T/C (dose: 400.0 mg/kg/injection, schedule: Q01DX010 (sc), vehicle: saline with Tween-80) was 46 % of control.
In the case of `O=C1CN(CN2CCOCC2)C(=O)CN1CN1CCOCC1`, the T/C (dose: 50.0 mg/kg/injection, schedule: Q01DX010 (sc), vehicle: suspension in saline) is reported as 116 % of control and the T/C (dose: 200.0 mg/kg/injection, schedule: Q01DX010 (sc), vehicle: suspension in saline) is reported as 156 % of control.
`CC(C)CCCCCCCCCCCCC(=O)NCC(=O)NC1C(C)OC(Nc2ncnc3nc[nH]c23)C(O)C1O` (configuration not stated) was tested, and the T/C (dose: 4.0 mg/kg/injection, schedule: Q01DX010 (sc), vehicle: distilled water + Tween-80) was 31 % of control and 33 % of control, the T/C (dose: 8.0 mg/kg/injection, schedule: Q01DX010 (sc), vehicle: distilled water + Tween-80) was 24 % of control and the T/C (dose: 32.0 mg/kg/injection, schedule: Q01DX010 (sc), vehicle: distilled water + Tween-80) was 28 % of control.
`NC(=S)c1cn(C2OC(CO)C(O)C2O)c2ncnc(N)c12` (configuration not stated) was tested, and the T/C (dose: 6.25 mg/kg/injection, schedule: Q04DX003 (sc), vehicle: suspension in saline) was 58 % of control and the T/C (dose: 12.5 mg/kg/injection, schedule: Q04DX003 (sc), vehicle: suspension in saline) was 43 % of control.
`CC1NC(=O)C(NC(=O)c2cnc3ccccc3n2)COC(=O)C(C(C)C)N(C)C(=O)C2CSSCC(C(=O)N(C)C(C(C)C)C(=O)OCC(NC(=O)c3cnc4ccccc4n3)C(=O)NC(C)C(=O)N2C)N(C)C1=O` (configuration not stated) (I: Quinoxaline2carbonyl-SA[NMeC][NMeV] / II: Quinoxaline2carbonyl-SA[NMeC][NMeV]; ester I:1-II:C, I:C-II:1; disulfide I:3-II:3; configuration not given here) was tested, and the T/C (dose: 100.0 micrograms/kg/injection, schedule: Q04DX003 (sc), vehicle: Klucel (hydroxypropylcellulose) (HPC)) was 104 % of control, the T/C (dose: 200.0 micrograms/kg/injection, schedule: Q04DX003 (sc), vehicle: Klucel (hydroxypropylcellulose) (HPC)) was 83 % of control and the T/C (dose: 400.0 micrograms/kg/injection, schedule: Q04DX003 (sc), vehicle: Klucel (hydroxypropylcellulose) (HPC)) was 54 % of control.
`OCC1OC(n2cnc3c(Cl)ncnc32)C(O)C1O` (configuration not stated) was tested, and the T/C [1] was 74 % of control, the T/C [2] was 96 % of control and 103 % of control and the T/C [3] was 80 % of control and 99 % of control. For the same molecule, the T/C (dose: 800.0 mg/kg/injection, schedule: Q01DX010 (sc), vehicle: saline) was 112 % of control.
In the case of `[Cl][Mn][Cl]`, the T/C (dose: 75.0 mg/kg/injection, schedule: Q04DX003 (sc), vehicle: saline) is reported as 68 % of control and the T/C (dose: 150.0 mg/kg/injection, schedule: Q04DX003 (sc), vehicle: saline) is reported as 50 % of control.
`CS(=O)(=O)OCCN(CCOS(C)(=O)=O)c1ccc(C=O)cc1` was tested, and the T/C (dose: 12.5 mg/kg/injection, schedule: Q01DX010 (sc), vehicle: saline) was 188 % of control, the T/C (dose: 25.0 mg/kg/injection, schedule: Q01DX010 (sc), vehicle: saline) was 71 % of control and the T/C (dose: 50.0 mg/kg/injection, schedule: Q01DX010 (sc), vehicle: saline) was 33 % of control.
